Columns and labels:
FGFR3A = target: T1, FGFR3A (Homo sapiens, UniProt P22607); test: DSF Tm panel; type: binding; details: 10 μM compound
T1 construct: purchased in-house DSF kinase panel (SGC-style construct names; the trailing letter is the construct ID)

AURKBA = target: T2, AURKBA (Homo sapiens, UniProt Q96GD4); test: DSF Tm panel; type: binding; details: 10 μM compound
T2 construct: purchased in-house DSF kinase panel (SGC-style construct names; the trailing letter is the construct ID)

NEK7A = target: T3, NEK7A (Homo sapiens, UniProt Q8TDX7); test: DSF Tm panel; type: binding; details: 10 μM compound
T3 construct: purchased in-house DSF kinase panel (SGC-style construct names; the trailing letter is the construct ID)
T3 sequence (Q8TDX7 whole entry): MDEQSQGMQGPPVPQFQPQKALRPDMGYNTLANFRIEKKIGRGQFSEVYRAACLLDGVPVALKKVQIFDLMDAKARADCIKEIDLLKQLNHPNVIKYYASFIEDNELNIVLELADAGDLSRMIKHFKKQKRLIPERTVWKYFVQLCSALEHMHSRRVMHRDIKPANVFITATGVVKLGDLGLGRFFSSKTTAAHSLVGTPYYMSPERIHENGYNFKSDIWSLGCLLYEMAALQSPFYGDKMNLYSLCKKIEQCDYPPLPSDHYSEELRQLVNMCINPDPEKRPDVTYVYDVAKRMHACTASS

EPHB1A = target: T4, EPHB1A (Homo sapiens, UniProt P54762); test: DSF Tm panel; type: binding; details: 10 μM compound
T4 construct: purchased in-house DSF kinase panel (SGC-style construct names; the trailing letter is the construct ID)
T4 sequence (P54762 602-896): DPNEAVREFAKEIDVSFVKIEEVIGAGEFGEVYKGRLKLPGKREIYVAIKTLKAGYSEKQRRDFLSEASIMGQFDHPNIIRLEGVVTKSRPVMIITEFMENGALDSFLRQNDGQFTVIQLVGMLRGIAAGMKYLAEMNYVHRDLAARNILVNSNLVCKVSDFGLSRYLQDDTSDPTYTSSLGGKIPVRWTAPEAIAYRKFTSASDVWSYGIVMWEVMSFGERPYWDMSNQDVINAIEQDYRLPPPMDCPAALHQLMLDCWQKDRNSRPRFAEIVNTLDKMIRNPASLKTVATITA

NQO2A = target: T5, NQO2A (Homo sapiens, UniProt P16083); test: DSF Tm panel; type: binding; details: 10 μM compound
T5 construct: purchased in-house DSF kinase panel (SGC-style construct names; the trailing letter is the construct ID)
T5 sequence (P16083 1-231): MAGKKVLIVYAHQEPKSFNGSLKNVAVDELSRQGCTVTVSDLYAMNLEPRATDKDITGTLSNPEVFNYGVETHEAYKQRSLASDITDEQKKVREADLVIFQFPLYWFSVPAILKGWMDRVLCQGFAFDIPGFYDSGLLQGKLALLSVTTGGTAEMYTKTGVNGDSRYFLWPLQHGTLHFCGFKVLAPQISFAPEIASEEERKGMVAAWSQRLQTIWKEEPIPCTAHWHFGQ

EPHA4A = target: T6, EPHA4A (Homo sapiens, UniProt P54764); test: DSF Tm panel; type: binding; details: 10 μM compound
T6 construct: purchased in-house DSF kinase panel (SGC-style construct names; the trailing letter is the construct ID)
T6 sequence (P54764 621-882): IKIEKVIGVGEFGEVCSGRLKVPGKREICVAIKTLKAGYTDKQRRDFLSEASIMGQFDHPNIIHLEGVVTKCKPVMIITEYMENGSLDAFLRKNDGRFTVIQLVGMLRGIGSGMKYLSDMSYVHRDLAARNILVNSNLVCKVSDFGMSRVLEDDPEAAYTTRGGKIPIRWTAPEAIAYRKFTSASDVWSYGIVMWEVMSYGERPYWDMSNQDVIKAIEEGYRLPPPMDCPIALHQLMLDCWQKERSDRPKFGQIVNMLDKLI

MAPK8B = target: T7, MAPK8B (Homo sapiens, UniProt P45983); test: DSF Tm panel; type: binding; details: 10 μM compound
T7 construct: purchased in-house DSF kinase panel (SGC-style construct names; the trailing letter is the construct ID)
T7 sequence (P45983 1-364): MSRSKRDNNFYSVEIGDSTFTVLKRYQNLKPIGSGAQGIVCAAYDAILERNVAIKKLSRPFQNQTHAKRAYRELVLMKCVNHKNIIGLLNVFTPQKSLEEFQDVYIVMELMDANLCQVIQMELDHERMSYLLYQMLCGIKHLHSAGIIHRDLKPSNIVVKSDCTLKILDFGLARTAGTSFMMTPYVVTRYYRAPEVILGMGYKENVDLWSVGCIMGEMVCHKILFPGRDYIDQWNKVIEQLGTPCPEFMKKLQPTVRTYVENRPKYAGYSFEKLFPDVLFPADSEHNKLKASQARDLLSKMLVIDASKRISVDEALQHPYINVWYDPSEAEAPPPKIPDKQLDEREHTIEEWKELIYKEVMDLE

FECHHSB = target: T8, FECHHSB (Homo sapiens, UniProt P22830); test: DSF Tm panel; type: binding; details: 10 μM compound
T8 construct: purchased in-house DSF kinase panel (SGC-style construct names; the trailing letter is the construct ID)
T8 sequence (P22830 55-423): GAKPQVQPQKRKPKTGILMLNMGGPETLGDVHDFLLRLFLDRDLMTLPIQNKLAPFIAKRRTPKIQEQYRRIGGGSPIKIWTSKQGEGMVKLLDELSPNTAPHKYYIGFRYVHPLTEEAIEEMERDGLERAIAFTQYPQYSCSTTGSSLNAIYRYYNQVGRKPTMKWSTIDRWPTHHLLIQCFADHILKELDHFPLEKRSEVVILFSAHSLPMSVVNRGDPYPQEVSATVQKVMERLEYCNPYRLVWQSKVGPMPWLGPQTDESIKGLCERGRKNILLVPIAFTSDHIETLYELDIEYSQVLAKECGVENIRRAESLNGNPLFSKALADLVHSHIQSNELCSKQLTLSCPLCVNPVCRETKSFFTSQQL

STK10 [1] = target: T9, STK10 (Homo sapiens, UniProt O94804); test: Surface plasmon resonance (SPR); type: binding; details: 1:1 Langmuir kinetic model, 25 °C
T9 construct: purchased in-house DSF kinase panel (SGC-style construct names; the trailing letter is the construct ID)
T9 sequence (O94804 18-317 limits assumed): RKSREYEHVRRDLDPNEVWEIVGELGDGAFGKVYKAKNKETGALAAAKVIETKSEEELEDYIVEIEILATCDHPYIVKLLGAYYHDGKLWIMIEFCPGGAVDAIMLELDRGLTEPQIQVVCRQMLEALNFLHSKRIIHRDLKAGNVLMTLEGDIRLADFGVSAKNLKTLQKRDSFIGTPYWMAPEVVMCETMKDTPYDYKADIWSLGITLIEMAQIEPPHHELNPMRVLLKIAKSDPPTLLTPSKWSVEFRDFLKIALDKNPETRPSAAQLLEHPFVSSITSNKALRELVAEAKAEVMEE
Procedure: each well using a multichannel pipette (Eppendorf). Plates were incubated at 37 °C for 1 hour.
For substrate addition, 5 μL of 8 μM AQT0505 peptide was added to each well using the Mantis […]
temperature for an additional hour.
Fluorescence of the SOX-peptide was measured after excitation at 360 nm and emission at 487 nm using a PHERAstar plate reader (BMG Labtech). IC50 values were calculated by nonlinear regression of log[inhibitor] versus normalized response using GraphPad Prism 8 (www.graphpad.com, RRID:SCR_002798).
SPR. Surface plasmon resonance (SPR) experiments were conducted using a Biacore T200 instrument equipped with a Series S Sensor Chip NTA (Cytiva) at 25 °C. His-STK10 was immobilized at a flow rate of 10 µL/min on flow channels (FC) 2 while FC1 served as a blank reference without protein. Nickel loading of the chip was achieved by injecting 500 µM NiCl₂.
To activate the chip surface for covalent coupling, 483 mM EDC and 10 mM NHS were mixed in a 1:1 (v/v) ratio and injected. […]
Compound 23 was measured in duplicates using Multi-Cycle Kinetics, with 10 concentrations ranging from 0.01 µM to 5 μM injected across FC1 and FC2 at 30 µL/min for 150 s. Interaction data was FC1-referenced, blank-subtracted, solvent-corrected, and analyzed using Biacore T200 Evaluation Software version 3.2.1. […]

SLK = SLK (Homo sapiens, UniProt Q9H2G2); test: Surface plasmon resonance (SPR); type: binding; details: kinetic fit, Figure S3
STK10 [2] = target: T9, STK10; details: Figure 1, previous published dual STK10/SLK inhibitors, ref Serafim et al.; read-out: STK10 in vitro IC50; cited from earlier work

T1 sequence (P22607 472-761): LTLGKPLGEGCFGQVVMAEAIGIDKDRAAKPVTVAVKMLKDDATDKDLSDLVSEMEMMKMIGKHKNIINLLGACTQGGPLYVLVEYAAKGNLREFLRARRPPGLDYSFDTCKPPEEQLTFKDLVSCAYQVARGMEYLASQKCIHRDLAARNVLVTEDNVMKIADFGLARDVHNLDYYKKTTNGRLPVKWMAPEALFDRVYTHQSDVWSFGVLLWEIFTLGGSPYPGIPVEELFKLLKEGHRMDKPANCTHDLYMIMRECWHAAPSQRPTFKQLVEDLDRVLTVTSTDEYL
T2 sequence (Q96GD4 whole entry): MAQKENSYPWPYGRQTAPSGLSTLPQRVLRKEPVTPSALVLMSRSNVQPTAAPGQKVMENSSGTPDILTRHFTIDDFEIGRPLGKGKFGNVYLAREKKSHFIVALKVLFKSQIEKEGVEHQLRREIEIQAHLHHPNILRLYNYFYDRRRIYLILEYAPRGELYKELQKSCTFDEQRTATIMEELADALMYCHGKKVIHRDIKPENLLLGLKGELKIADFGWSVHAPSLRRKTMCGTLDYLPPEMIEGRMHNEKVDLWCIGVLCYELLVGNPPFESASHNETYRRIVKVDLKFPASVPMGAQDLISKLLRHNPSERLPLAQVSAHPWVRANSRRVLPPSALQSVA

| SMILES | ΔTm at 10 µM (FGFR3A) [°C] | ΔTm at 10 µM (AURKBA) [°C] | ΔTm at 10 µM (NEK7A) [°C] | ΔTm at 10 µM (EPHB1A) [°C] | ΔTm at 10 µM (NQO2A) [°C] | ΔTm at 10 µM (EPHA4A) [°C] | ΔTm at 10 µM (MAPK8B) [°C] | further results |
| --- | --- | --- | --- | --- | --- | --- | --- | --- |
| O=C(NCc1cccc(Cl)c1)Nc1ccc2cc1OCCOCCNc1ccn3ncc-2c3n1 [compound 18] | 3.6 | – | – | – | – | – | – | – |
| Cc1cc(Br)ccc1CNC(=O)Nc1ccc2cc1OCCOCCNc1ccn3ncc-2c3n1 [compound 24] | – | 7.7 | 1.6 | 0.2 | -1.9 | 0.2 | 0.6 | – |
| O=C(NCc1ccccc1Cl)Nc1ccc2cc1OCCOCCNc1ccn3ncc-2c3n1 [compound 17] | 2.1 | – | – | – | – | – | – | – |
| O=C(NCc1ccc(C(F)(F)F)cc1)Nc1ccc2cc1OCCOCCNc1ccn3ncc-2c3n1 [compound 28] | – | 9 | 2.3 | 0.5 | -2.7 | 0.5 | 0.9 | – |
| O=C(NCc1ccc(Cl)cc1Cl)Nc1ccc2cc1OCCOCCNc1ccn3ncc-2c3n1 [compound 20] | 1.4 | – | – | – | – | – | – | – |
| CN1CCN(C(=O)Nc2ccc3cc2OCCOCCNc2ccn4ncc-3c4n2)CC1 [compound 35] | 3 | – | – | – | – | – | – | – |
| Cc1cc(Cl)ccc1CNC(=O)Nc1ccc2cc1OCCOCCNc1ccn3ncc-2c3n1 [compound 23] | 2.5 | – | – | – | – | – | – | Kd (STK10 [1]): 365 ± 45 nM; Kd (SLK): 985 ± 855 nM; Kd SLK (SPR) (SLK): mainly nonspecific binding |
| C[C@H](NC(=O)Nc1ccc2cc1OCCOCCNc1ccn3ncc-2c3n1)c1ccccc1 [compound 34] | – | 7.1 | 0.9 | 0.1 | -0.5 | 0.3 | 0.9 | – |
| O=C(NCc1ccccc1C(F)(F)F)Nc1ccc2cc1OCCOCCNc1ccn3ncc-2c3n1 [compound 27] | – | 8.6 | 2 | 0.3 | -4.1 | 0.3 | 0.5 | – |
| O=C(NCc1ccc(Cl)cc1)Nc1ccc2cc1OCCOCCNc1ccn3ncc-2c3n1 [compound 19] | 1.7 | – | – | – | – | – | – | – |
| O=C(NCc1ccccc1)Nc1ccc2cc1OCCOCCNc1ccn3ncc-2c3n1 [compound 16] | 5 | – | – | – | – | – | – | – |

Now from value to compound, other results behind:

| ΔTm at 10 µM (FGFR3A) [°C] | ΔTm at 10 µM (AURKBA) [°C] | ΔTm at 10 µM (NEK7A) [°C] | ΔTm at 10 µM (EPHB1A) [°C] | ΔTm at 10 µM (NQO2A) [°C] | ΔTm at 10 µM (EPHA4A) [°C] | ΔTm at 10 µM (MAPK8B) [°C] | SMILES | further results |
| --- | --- | --- | --- | --- | --- | --- | --- | --- |
| – | 6.6 | 1.7 | 0.1 | -0.5 | 0.3 | 1.1 | COc1ccccc1CNC(=O)Nc1ccc2cc1OCCOCCNc1ccn3ncc-2c3n1 [compound 29] | ΔTm at 10 µM (FECHHSB): -3.1 °C |
| – | 7.8 | 0.9 | 0.3 | -1.5 | 0.3 | 0.5 | Cc1ccc(F)cc1CNC(=O)Nc1ccc2cc1OCCOCCNc1ccn3ncc-2c3n1 [compound 26] | – |
| – | 7.9 | 1.3 | 0.3 | -2.8 | 0.4 | 0.8 | COc1ccc(CNC(=O)Nc2ccc3cc2OCCOCCNc2ccn4ncc-3c4n2)cc1F [compound 32] | – |
| – | 9.1 | 1.4 | 0.5 | -1.5 | 0.4 | 0.9 | COc1cc(CNC(=O)Nc2ccc3cc2OCCOCCNc2ccn4ncc-3c4n2)ccc1F [compound 33] | – |
| – | 7.6 | 0.6 | 0.4 | -0.6 | 0.4 | 1.1 | COc1ccc(CNC(=O)Nc2ccc3cc2OCCOCCNc2ccn4ncc-3c4n2)cc1 [compound 31] | IC50 (STK10 [2]): 12 nM |
| – | 7.3 | 1 | 0.2 | -0.5 | 0.3 | 1.2 | COc1cccc(CNC(=O)Nc2ccc3cc2OCCOCCNc2ccn4ncc-3c4n2)c1 [compound 30] | ΔTm at 10 µM (FECHHSB): -3.8 °C |
| 1.6 | – | – | – | – | – | – | O=C(NCc1ccc(Cl)cc1F)Nc1ccc2cc1OCCOCCNc1ccn3ncc-2c3n1 [compound 21] | – |
